Where a SMILES comes first, the peptide text is derived from it. [ ]: non-standard residue; d: D form. The star is where a group is joined. ξ: configuration not given here. ξGly(4-Pip(1-amidino)) = N=C(N)N1CCC(C(N)C(=O)O)CC1; ξGly(piperidin-4-yl) = NC(C(=O)O)C1CCNCC1; Tle = CC(C)(C)[C@H](N)C(=O)O; X1 = O=S(=O)(CCOCCOCCF)CC*
Tests used:
[1] = in vitro stability, incubation in PBS, radio-HPLC; type: physicochemical; conditions: 4 hr post HPLC purification
Procedure: ^18F-DEG-VS (100 μL, 1 mCi) and 30 μL of borate buffer (pH 8.5) were added into Neurotensin (100 μg, […]) or (Ac)-NT and the reaction mixture was incubated at room temperature for 5-10 min. The reaction was quenched by acetic acid (5%, 600 μL) and product was purified by radio HPLC using Method 1. The retention time of ^18F-DEG-VS-NT was 25.6 min and (^18F-DEG-VS)2-NT was not observed. […] An aliquot of the solution was then analyzed by radio-HPLC to determine the radiochemical purify. The retention time of ^18F-DEG-VS-(Ac)-NT was 28.4 min.

NTR1 = target: T1, NTR1 (Homo sapiens, UniProt P30989); assay: competitive cell-binding assay with 125I-NT(8-13) in HT-29 cells; conditions: 1 hr at 37° C, n=3, read-out: IC50, inhibition of binding of 125I-NT(8-13) to NTR1 positive HT-29 cells
T1 construct: host or cells: HT-29 human colon adenocarcinoma cells (intact, adherent)
T1 sequence (P30989 whole entry): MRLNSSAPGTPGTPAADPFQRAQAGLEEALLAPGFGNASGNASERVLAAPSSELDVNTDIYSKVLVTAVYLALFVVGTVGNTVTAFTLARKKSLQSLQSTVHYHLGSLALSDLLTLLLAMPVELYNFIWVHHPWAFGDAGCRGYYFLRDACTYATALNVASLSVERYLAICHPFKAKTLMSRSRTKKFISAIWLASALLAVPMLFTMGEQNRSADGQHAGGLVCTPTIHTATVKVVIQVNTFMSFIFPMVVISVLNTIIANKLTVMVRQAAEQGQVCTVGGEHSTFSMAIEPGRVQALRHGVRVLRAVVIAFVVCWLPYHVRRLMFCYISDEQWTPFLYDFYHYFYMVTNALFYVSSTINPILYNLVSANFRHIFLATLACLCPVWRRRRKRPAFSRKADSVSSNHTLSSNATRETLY
Procedure: The human colon adenocarcinoma cell HT29 was obtained from American Type Culture Collection and maintained at 37° C. in a humidified atmosphere containing 5% CO2 in RPMI-1640, supplemented with 1% L-glutamine, 1% penicillin/streptomycin and 10% fetal bovine serum (Life Technologies, Inc.).
In detail, HT-29 cells were placed in 48-wells plates (1 million/0.4 mL/well) and were incubated for overnight. The cells were washed three times with binding buffer (50 mM Hepes, 125 mM NaCl, 7.5 mM KCl, 5.5 mM MgCl2, 1 mM EGTA, 5 g/L BSA, 2 mg/L chymostatin, 100 mg/L soybean trypsin inhibitor, 50 mg/L bacitracin, pH 7.4). […] After washing, cells were solubilized with 1 mol/L NaOH at 37° C. and the radioactivity was determined using a gamma counter. The best-fit 50% inhibitory concentration (IC50) values for HT-29 cells were calculated by fitting the data with nonlinear regression using GraphPad Prism (GraphPad Software). Experiments were performed on triplicate samples.

IC50 (NTR1) [nM]	Compound	radiochemical purity after incubation in PBS [1]
	C=CS(=O)(=O)CCOCCOCC[18F] [^18F-DEG-VS]	more than 99%
2.03 ± 0.22	CC(C)C[C@H](NC(=O)[C@@H](NC(=O)[C@H](Cc1ccc(O)cc1)NC(=O)[C@@H]1CCCN1C(=O)[C@H](CCCNC(=N)N)NC(=O)C(NC(=O)[C@@H]1CCCN1C(=O)C(NC(=O)[C@@H](N)CSCCS(=O)(=O)CCOCCOCCF)C1CCNCC1)C1CCN(C(=N)N)CC1)C(C)(C)C)C(=O)O (stereo partly drawn) [^19F-DEG-VS-NT] (H-C(X1)[ξGly(piperidin-4-yl)]P[ξGly(4-Pip(1-amidino))]RPY[Tle]L-OH)	
